The values that follow come from PubChem BioAssay AID342 (DTP/NCI, 2004).

Several values for one entry are separate records, joined by “and”; a condition that tells them apart may be missing. Equal entries are not always repeated.

In this assay the test system is Swiss mice, Sarcoma 180 sc, mean tumor weight T/C. Kind of assay: NCI In Vivo Anticancer Drug Screen. Data for tumor model Sarcoma 180 (subcutaneous) in Swiss mice. The note with it: endpoint: mean tumor weight, higher = larger tumour. How it is done:
The antitumor activity of compounds was measured in mice bearing transplantable tumors. Survival or tumor size were measured and the results are expressed as the measurement made in the treated group (T) divided by the measurement made in the vehicle treated control group (C). The tumor model used in this assay is Sarcoma 180 (subcutaneous) in Swiss mice

Take `O=c1[nH]cc(F)c(=O)[nH]1`: the T/C (dose: 3.12 mg/kg/injection, schedule: Q#A X014 (ip), vehicle: carboxymethylcellulose (CMC)) was 83 % of control; the T/C (dose: 6.25 mg/kg/injection, schedule: Q#A X014 (ip), vehicle: carboxymethylcellulose (CMC)) was 100 % of control; the T/C (dose: 6.3 mg/kg/injection, schedule: Q#A X014 (ip), vehicle: carboxymethylcellulose (CMC)) is 83 % of control; the T/C (dose: 9.5 mg/kg/injection, schedule: Q#A X014 (ip), vehicle: carboxymethylcellulose (CMC)) was 48 % of control; the T/C (dose: 12.5 mg/kg/injection, schedule: Q#A X014 (ip), vehicle: carboxymethylcellulose (CMC)) is 90 % of control; the T/C (dose: 12.66 mg/kg/injection, schedule: Q#A X014 (ip), vehicle: carboxymethylcellulose (CMC)) was 39 % of control. The T/C by setting is: (dose: 15.2 mg/kg/injection, schedule: Q01DX007 (ip), vehicle: carboxymethylcellulose (CMC)) 73 % of control and 89 % of control; (dose: 19.0 mg/kg/injection, schedule: Q#A X014 (ip), vehicle: carboxymethylcellulose (CMC)) 2 % of control; (dose: 25.0 mg/kg/injection, schedule: Q#A X014 (ip), vehicle: carboxymethylcellulose (CMC)) 25 % of control; (dose: 25.3 mg/kg/injection, schedule: Q01DX007 (ip), vehicle: carboxymethylcellulose (CMC)) 76 % of control; (dose: 25.33 mg/kg/injection, schedule: Q01DX007 (ip), vehicle: carboxymethylcellulose (CMC)) 53 % of control.
In the case of `C[C@]12CCC(=O)C=C1[C@@H](F)C[C@@H]1[C@@H]2[C@@H](O)C[C@@]2(C)[C@H]1CC[C@]2(O)C(=O)CO`, the T/C reads like this: (dose: 37.0 mg/kg/injection, schedule: Q01DX007 (sc), vehicle: steriod suspending solution) 76 % of control; (dose: 56.0 mg/kg/injection, schedule: Q01DX007 (sc), vehicle: steriod suspending solution) 89 % of control; (dose: 125.0 mg/kg/injection, schedule: Q01DX007 (sc), vehicle: steriod suspending solution) 97 % of control; (dose: 126.0 mg/kg/injection, schedule: Q01DX007 (sc), vehicle: steriod suspending solution) 33 % of control; (dose: 188.0 mg/kg/injection, schedule: Q01DX007 (sc), vehicle: steriod suspending solution) 29 % of control.
As for `CN(C)[C@@H]1C(=O)C(C(N)=O)=C(O)[C@@]2(O)C(=O)C3=C(O)c4c(O)cccc4C[C@H]3C[C@@H]12`, the T/C is, setting by setting: (dose: 20.0 mg/kg/injection, schedule: Q#A X014 (ip), vehicle: other) 64 % of control; (dose: 30.0 mg/kg/injection, schedule: Q#A X014 (ip), vehicle: other) 61 % of control; (dose: 45.0 mg/kg/injection, schedule: Q#A X014 (ip), vehicle: other) 31 % of control.
For the compound `CO[C@H]1CC[C@@]2(C)[C@@H](CC[C@H]3[C@@H]4C[C@H](O)C[C@@]4(C)CC[C@@H]32)C1`, the T/C (dose: 0.01 mg/kg/injection, schedule: Q#A X014 (sc), vehicle: olive oil, sesame oil, peanut oil) was 121 % of control; the T/C (dose: 0.05 mg/kg/injection, schedule: Q#A X014 (sc), vehicle: olive oil, sesame oil, peanut oil) was 72 % of control; the T/C (dose: 0.25 mg/kg/injection, schedule: Q#A X014 (sc), vehicle: olive oil, sesame oil, peanut oil) is 112 % of control; the T/C (dose: 50.0 mg/kg/injection, schedule: Q#A X014 (ip), vehicle: distilled water + alcohol) is 95 % of control.
Regarding `Cc1cc(N(CCCl)CCCl)ccc1N=Nc1ccccc1C(=O)O`, the T/C runs as follows: (dose: 5.3 mg/kg/injection, schedule: Q01DX007 (ip), vehicle: carboxymethylcellulose (CMC)) 33 % of control; (dose: 8.0 mg/kg/injection, schedule: Q01DX007 (ip), vehicle: carboxymethylcellulose (CMC)) 50 % of control; (dose: 12.0 mg/kg/injection, schedule: Q01DX007 (ip), vehicle: carboxymethylcellulose (CMC)) 61 % of control; (dose: 18.0 mg/kg/injection, schedule: Q01DX007 (ip), vehicle: carboxymethylcellulose (CMC)) 27 % of control.
With `Nc1nc(=O)n(C2CC(O)C(CO)O2)cc1F` (configuration not stated), the T/C is, setting by setting: (dose: 22.0 mg/kg/injection, schedule: Q#A X014 (ip), vehicle: saline) 10 % of control; (dose: 33.5 mg/kg/injection, schedule: Q#A X014 (ip), vehicle: saline) 7 % of control; (dose: 50.0 mg/kg/injection, schedule: Q#A X014 (ip), vehicle: saline) 3 % of control; (dose: 75.0 mg/kg/injection, schedule: Q#A X014 (ip), vehicle: saline) 2 % of control.
For `CC=C(/C(=C/C)c1ccc(O)cc1)c1ccc(O)cc1`, the T/C (dose: 15.0 mg/kg/injection, schedule: Q01DX007 (ip), vehicle: carboxymethylcellulose (CMC)) was 52 % of control; the T/C (dose: 20.0 mg/kg/injection, schedule: Q01DX007 (ip), vehicle: carboxymethylcellulose (CMC)) is 42 % of control; the T/C (dose: 27.5 mg/kg/injection, schedule: Q#A X014 (ip), vehicle: carboxymethylcellulose (CMC)) was 40 % of control and 54 % of control; the T/C (dose: 30.0 mg/kg/injection, schedule: Q01DX007 (ip), vehicle: carboxymethylcellulose (CMC)) was 48 % of control; the T/C (dose: 44.0 mg/kg/injection, schedule: Q01DX007 (ip), vehicle: carboxymethylcellulose (CMC)) is 31 % of control and 40 % of control; the T/C (dose: 66.0 mg/kg/injection, schedule: Q01DX007 (ip), vehicle: carboxymethylcellulose (CMC)) was 35 % of control. In addition, the T/C is 58 % of control (dose: 80.0 mg/kg/injection, schedule: Q01DX007 (sc), vehicle: carboxymethylcellulose (CMC)); 14 % of control (dose: 80.0 mg/kg/injection, schedule: Q01DX007 (sc), vehicle: steriod suspending solution); 50 % of control and 69 % of control (dose: 94.0 mg/kg/injection, schedule: Q#A X014 (ip), vehicle: carboxymethylcellulose (CMC)); 52 % of control (dose: 100.0 mg/kg/injection, schedule: Q01DX007 (ip), vehicle: carboxymethylcellulose (CMC)); 104 % of control (dose: 124.0 mg/kg/injection, schedule: Q01DX007 (ip), vehicle: carboxymethylcellulose (CMC)); 39 % of control (dose: 150.0 mg/kg/injection, schedule: Q01DX007 (ip), vehicle: carboxymethylcellulose (CMC)). The T/C reads like this: (dose: 160.0 mg/kg/injection, schedule: Q01DX007 (sc), vehicle: carboxymethylcellulose (CMC)) 52 % of control; (dose: 160.0 mg/kg/injection, schedule: Q01DX007 (sc), vehicle: steriod suspending solution) 23 % of control; (dose: 188.0 mg/kg/injection, schedule: Q01DX007 (ip), vehicle: carboxymethylcellulose (CMC)) 84 % of control; (dose: 225.0 mg/kg/injection, schedule: Q01DX007 (ip), vehicle: carboxymethylcellulose (CMC)) 28 % of control and 31 % of control; (dose: 277.0 mg/kg/injection, schedule: Q01DX007 (ip), vehicle: carboxymethylcellulose (CMC)) 71 % of control; (dose: 281.0 mg/kg/injection, schedule: Q01DX007 (ip), vehicle: carboxymethylcellulose (CMC)) 63 % of control. In addition, the T/C is 30 % of control (dose: 320.0 mg/kg/injection, schedule: Q01DX007 (sc), vehicle: carboxymethylcellulose (CMC)); 23 % of control (dose: 320.0 mg/kg/injection, schedule: Q01DX007 (sc), vehicle: steriod suspending solution); 29 % of control (dose: 333.0 mg/kg/injection, schedule: Q01DX007 (ip), vehicle: carboxymethylcellulose (CMC)); 58 % of control and 65 % of control (dose: 422.0 mg/kg/injection, schedule: Q01DX007 (ip), vehicle: carboxymethylcellulose (CMC)); 24 % of control and 38 % of control (dose: 500.0 mg/kg/injection, schedule: Q01DX007 (ip), vehicle: carboxymethylcellulose (CMC)); 63 % of control (dose: 630.0 mg/kg/injection, schedule: Q01DX007 (ip), vehicle: carboxymethylcellulose (CMC)). Besides, the T/C (dose: 640.0 mg/kg/injection, schedule: Q01DX007 (sc), vehicle: carboxymethylcellulose (CMC)) was 47 % of control; the T/C (dose: 640.0 mg/kg/injection, schedule: Q01DX007 (sc), vehicle: steriod suspending solution) is 17 % of control; the T/C (dose: 750.0 mg/kg/injection, schedule: Q01DX007 (ip), vehicle: carboxymethylcellulose (CMC)) was 35 % of control; the T/C (dose: 945.0 mg/kg/injection, schedule: Q01DX007 (ip), vehicle: carboxymethylcellulose (CMC)) was 44 % of control.
On to `C[C@]1(O)CC[C@H]2[C@@H]3CCc4cc(O)ccc4[C@H]3CC[C@@]21C`, for which the T/C is 115 % of control (dose: 0.5 mg/kg/injection, schedule: Q#A X014 (sc), vehicle: steriod suspending solution); 103 % of control (dose: 5.0 mg/kg/injection, schedule: Q#A X014 (sc), vehicle: steriod suspending solution); 74 % of control (dose: 50.0 mg/kg/injection, schedule: Q#A X014 (sc), vehicle: steriod suspending solution).
